What was measured:
[1] = Inhibitory activity against v-H-Ras gene transfected cell line; assay type: functional
[2] = molecular target: T1, Protein farnesyltransferase (Homo sapiens, UniProt P49354+P49356); experiment: Inhibition of farnesyltransferase; assay type: protein-complex assay
[3] = molecular target: T1, Protein farnesyltransferase; experiment: Inhibition of Farnesyltransferase; assay type: protein-complex assay
[4] = tested on: Mus musculus; experiment: Percent control tumor size in mouse xenograft assay (rat H-ras transformed fibroblasts) at 200 mg/kg peroral dose; assay type: functional; settings: route oral
[5] = Inhibition of geranylgeranyl transferase
[6] = tested on: Mus musculus; experiment: Percent control tumor size in mouse xenograft assay (rat H-ras transformed fibroblasts) at 100 mg/kg peroral dose; assay type: functional; settings: route oral

| Structure (SMILES) | IC50 [1] [nM] | IC50 [2] [nM] | IC50 [3] [nM] | IC50 [5] [nM] | Control [4] [%] | Control [6] [%] |
| --- | --- | --- | --- | --- | --- | --- |
| N#Cc1ccc(Cn2cncc2CNC2Cc3ccccc3CN(Cc3cc(F)cc(F)c3F)C2=O)cc1 (centres undefined) | 47 | 18 | – | – | – | – |
| Cc1ccccc1CN1CCc2ccccc2C(NCc2cncn2Cc2ccc(C#N)cc2)C1=O (centres undefined) | 96 | 54 | – | – | – | – |
| N#Cc1ccc(Cn2cncc2CNC2C(=O)N(Cc3cccc(F)c3)CCc3ccccc32)cc1 (centres undefined) | 67 | 78 | – | – | – | – |
| N#Cc1ccc(Cn2cncc2CNC2C(=O)N(c3ccccc3)CCc3ccccc32)cc1 (centres undefined) | 95 | 54 | – | – | – | – |
| N#Cc1ccc(Cn2cncc2CNC2C(=O)N(Cc3cc(F)cc(F)c3)CCc3ccccc32)cc1 (centres undefined) | 379 | 26 | – | – | – | – |
| Cc1ccccc1CN1Cc2ccccc2CC(NCc2cncn2Cc2ccc(C#N)cc2)C1=O (centres undefined) | 4 | 3 | – | 7100 | 57 | 76 |
| N#Cc1ccc(Cn2cncc2CNC2Cc3ccccc3CN(c3cc(F)cc(F)c3)C2=O)cc1 (centres undefined) | 40 | 10 | – | – | – | – |
| N#Cc1ccc(Cn2cncc2CNC2Cc3ccccc3CN(Cc3ccc(F)cc3F)C2=O)cc1 (centres undefined) | 115 | 55 | – | – | – | – |
| N#Cc1ccc(Cn2cncc2CNC2C(=O)N(Cc3cccc(Br)c3)CCc3ccccc32)cc1 (centres undefined) | 60 | 22 | – | – | – | – |
| N#Cc1ccc(Cn2cncc2CNC2Cc3ccccc3CN(c3cc(Cl)cc(Cl)c3)C2=O)cc1 (centres undefined) | 7 | 15 | – | – | – | – |
| N#Cc1ccc(Cn2cncc2CNC2Cc3ccccc3CN(Cc3cccc(Cl)c3)C2=O)cc1 (centres undefined) | 4 | 6 | – | – | – | – |
| N#Cc1ccc(Cn2cncc2CNC2C(=O)N(Cc3cccc(Cl)c3)CCc3ccccc32)cc1 (centres undefined) | 183 | 23 | – | – | – | – |
| COc1cccc(N2Cc3ccccc3CC(NCc3cncn3Cc3ccc(C#N)cc3)C2=O)c1 (racemic) | 15 | 6 | – | – | – | – |
| N#Cc1ccc(Cn2cncc2CNC2Cc3ccccc3CN(c3cccc(Br)c3)C2=O)cc1 (racemic) | 5 | 15 | – | – | – | – |
| N#Cc1ccc(Cn2cncc2CNC2C(=O)N(c3cccc(Cl)c3)CCc3ccccc32)cc1 (racemic) | 39 | 19 | – | 7700 | 43 | 70 |

Continued, in another order:

| IC50 [1] [nM] | IC50 [2] [nM] | IC50 [3] [nM] | IC50 [5] [nM] | Structure (SMILES) | Control [4] [%] | Control [6] [%] |
| --- | --- | --- | --- | --- | --- | --- |
| 19 | – | 32 | – | N#Cc1ccc(Cn2cncc2CNC2C(=O)N(c3cc(Cl)cc(Cl)c3)CCc3ccccc32)cc1 (centres undefined) | – | – |
| 10 | 8 | – | – | N#Cc1ccc(Cn2cncc2CN[C@H]2CCCCN(Cc3ccccc3)C2=O)cc1 | – | – |
| 7 | 1 | – | 25000 | N#Cc1ccc(Cn2cncc2CN[C@H]2Cc3ccccc3CN(c3cccc(Cl)c3)C2=O)cc1 | 35 | 60 |
| 16 | 19 | – | – | N#Cc1ccc(Cn2cncc2CN[C@H]2Cc3ccccc3CN(c3ccccc3)C2=O)cc1 | – | – |
| 141 | 142 | – | – | N#Cc1ccc(Cn2cncc2CNC2Cc3ccccc3CN(Cc3ccc(Cl)cc3Cl)C2=O)cc1 (centres undefined) | – | – |
| 26 | 47 | – | – | N#Cc1ccc(Cn2cncc2CNC2Cc3ccccc3CN(CC3CCCCC3)C2=O)cc1 (centres undefined) | – | – |
| 86 | 62 | – | – | N#Cc1ccc(Cn2cncc2CNC2C(=O)N(c3cc(F)cc(F)c3)CCc3ccccc32)cc1 (centres undefined) | – | – |
| 92 | 23 | – | – | N#Cc1ccc(Cn2cncc2CNC2C(=O)N(Cc3ccccc3Cl)CCc3ccccc32)cc1 (centres undefined) | – | – |
| 16 | 8 | – | – | N#Cc1ccc(Cn2cncc2CNC2Cc3ccccc3CN(Cc3cc(F)cc(F)c3)C2=O)cc1 (centres undefined) | – | – |
| 6 | 17 | – | – | N#Cc1ccc(Cn2cncc2CNC2Cc3ccccc3CN(Cc3ccccc3)C2=O)cc1 (centres undefined) | – | – |
| 6 | 10 | – | – | N#Cc1ccc(Cn2cncc2CNC2Cc3ccccc3CN(Cc3ccccc3Cl)C2=O)cc1 (centres undefined) | – | – |
| 36 | 26 | – | – | N#Cc1ccc(Cn2cncc2CNC2Cc3ccccc3CN(c3ccccc3)C2=O)cc1 (racemic) | – | – |
| 16 | 4 | – | – | N#Cc1ccc(Cn2cncc2CNC2Cc3ccccc3CN(c3cccc(Cl)c3)C2=O)cc1 (racemic) | – | – |
| 46 | 13 | – | – | N#Cc1ccc(Cn2cncc2CNC2Cc3ccccc3CN(c3cccc([N+](=O)[O-])c3)C2=O)cc1 (racemic) | – | – |
| 39 | 9 | – | – | N#Cc1ccc(Cn2cncc2CNC2Cc3ccccc3CN(c3cccc(F)c3)C2=O)cc1 (racemic) | – | – |
